Measurements: article PMC7403980, “Anti-Inflammatory Effects of the Novel PIM Kinase Inhibitor KMU-470 in RAW 264.7 Cells through the TLR4-NF-κB-NLRP3 Pathway” (International Journal of Molecular Sciences, 2020)

What was measured:
PIM-2 = molecular target: T1, PIM-2 (Homo sapiens, UniProt Q9P1W9); assay: PIM kinase IMAP fluorescence polarization IC50 determination; assay type: biochemical; details: ATP 5 μM; average of two independent experiments; read-out: Inhibitory Activity IC50 PIM-2
T1 construct: purchased Abcam (Cambridge, UK)
Description: (§1) The recombinant PIM kinase, human 5-FAM-labelled Bad peptide substrate, and ATP were prepared in a reaction buffer containing 10 mM HEPES (pH 7.2), 10 mM MgCl2, 0.05% NaN3, 0.01% Triton X-100, and 2 mM DTT. […] Reagents were added to the plate as follows: 2.5 μL compound, 2.5 μL PIM kinase, 2.5 μL ATP, and 2.5 μL 5-FAM-labelled Bad peptide substrate (a final concentration of 100 nM). The final concentrations of ATP in the kinase reactions were 30 μM, 5 μM, and 20 μM for PIM1, PIM2, and PIM3, respectively. […] Kinase reactions were incubated at room temperature for 90 min, and then the reactions were stopped by the addition of 20 μL of IMAP binding reagent (solution containing 75% Buffer A: 25% Buffer B, and a 1 in 600 dilution of beads). After quenching, the plates were incubated at room temperature for 2 h, and then the fluorescence polarization measurements were carried out on an Infinity F200 (Tecan, Männedorf, Zürich, Switzerland). The percentage of inhibition was calculated for each compound concentration and the data were fitted to the equation of a 4-parameter logistic curve. IC50 values were obtained using GraphPad Prism (GraphPad Software, Inc., La Jolla, CA, USA).

PIM-3 = molecular target: T2, PIM-3 (Homo sapiens, UniProt Q86V86); assay: as above; assay type: biochemical; details: ATP 20 μM; average of two independent experiments; read-out: Inhibitory Activity IC50 PIM-3
T2 construct: purchased Millipore (Burlington, MA, USA)
Description: as §1

IL-1β mRNA = assay: LPS-induced IL-1β mRNA expression in RAW 264.7 cells (RT-PCR); assay type: cell-based, murine; details: LPS 50 ng/mL 6 h
Description: Total RNA was isolated, and used to measure the mRNA expression levels of IL-1b and β-actin by RT-PCR analysis. *** p < 0.001, ** p < 0.01. […] (A-C) Cells were treated with KMU-470 for 30 min and stimulated with LPS 50 ng/mL for 6 h. The levels of IL-1β, TNF-α, and IL-6 were determined using real time PCR. *** p < 0.001, *p < 0.05. (D) Cells were pre-treated with 0.1, 0.5, and 1 μM of KMU-470 for 30 min and treated with LPS 50 ng/mL for 6 h, respectively. […] (E) Cells were pre-treated with 0.1, 0.5, and 1 μM of KMU-470 for 30 min and treated with LPS 50 ng/mL for 6 h, respectively. […] Total RNA was isolated using TriZol reagent (Life Technologies; Gaithersburg, MD, USA) according to the manufacturer's protocol. Total RNA absorbance was quantified by using Nanodrop 1000 (Thermo Fisher Scientific, Waltham, MA, USA). […] Real time quantitative PCR was performed by using the SYBR green premix (Roche Diagnostics, Mannheim, Germany) on the LightCycler 480 PCR (system Roche Diagnostics, Mannheim, Germany). The following primer sequences were used: L32 (Housekeeping gene): forward [NT], reverse [NT]-1β; forward [NT], reverse [NT]-α; forward [NT], reverse [NT]-6; forward [NT], reverse [NT].

p38 = assay: LPS-induced phosphorylation of p38 in RAW 264.7 cells (Western blot); assay type: cell-based, murine; details: KMU-470 1 μM 24 h pre-treatment, LPS 50 ng/mL
Description: (§2) Figure 5 Effect of KMU-470 on LPS-induced phosphorylation of MAPKs/ IKKs/ NF-κB in RAW 264.7 cells. (A) Cells were pre-treated with 1μM of KMU-470 for 24 h and stimulated with LPS (50 ng/mL) at the indicated times. (C) Cells were pre-treated with 0.5 and 1μM of KMU-470 for 30 min prior to LPS treatment. Total proteins were isolated after 6 h exposure to LPS (50 ng/mL). The protein expression level of MAPKs, p-IKKα/β, and p-NF-κB were assessed using Western blot analyses. (B,D) The relative optical densities of MAPKs, p-IKKα/β, and p-NF-κB bands were analyzed by the Image-J program. *** p < 0.001.
(§3) RAW 264.7 cells were pre-treated with KMU-470 (0.5–1 μM/mL) for 24 h and stimulated with LPS (50 ng/mL) for 6 h. After stimulation, total cells were harvested, washed with PBS buffer, and then the total protein was extracted with a RIPA buffer (0.1 mM sodium orthovanadate, 137 mM NaCl, 15 mM EGTA, 0.1% Triton X-100, 25 mM MOPS, 15 mM MgCl2, 100 μM phenylmethylsulfonyl fluoride, and 20 μM leupeptin, adjusted to pH 7.2). […] Immunoreactive proteins were detected using the ELC Western blot detection system kit (Millipore). Signal intensity was measured using the Chemi Image documentation system (Fusion Fx7, VILBER LOUTMAT). Protein expression levels were quantified using the Image J program.

IKKα/β = assay: LPS-induced phosphorylation of IKKα/β in RAW 264.7 cells (Western blot); assay type: cell-based, murine; details: KMU-470 0.5 and 1 μM 30 min, LPS 50 ng/mL 6 h
Description: as §2, §3

NLRP3 = assay: LPS-induced NLRP3 protein expression in RAW 264.7 cells (Western blot); assay type: cell-based, murine; details: KMU-470 0.1, 0.5, 1 μM 30 min, LPS 50 ng/mL 6 h
Description: (§4) Figure 6 Inhibitory effect of KMU-470 on LPS-induced up-regulation of pro-inflammatory cytokines and activation of NLRP3 inflammasome in RAW 264.7 cells. (A–C) Cells were treated with KMU-470 for 30 min and stimulated with LPS 50 ng/mL for 6 h. The levels of IL-1β, TNF-α, and IL-6 were determined using real time PCR. *** p < 0.001, *p < 0.05. (D) Cells were pre-treated with 0.1, 0.5, and 1 μM of KMU-470 for 30 min and treated with LPS 50 ng/mL for 6 h, respectively. Whole cell lysates were isolated and used to measure the protein expression levels of pro-IL-1β and β-actin by Western blot analysis. (E) Cells were pre-treated with 0.1, 0.5, and 1 μM of KMU-470 for 30 min and treated with LPS 50 ng/mL for 6 h, respectively. Whole cell lysates were isolated and used to measure the protein expression levels of […], ASC, pro-caspase-1, pro-IL-1β, and β-actin by Western blot analysis.
(§5) RAW 264.7 cells were pre-treated with KMU-470 (0.5–1 μM/mL) for 24 h and stimulated with LPS (50 ng/mL) for 6 h. […] Immunoreactive proteins were detected using the ELC Western blot detection system kit (Millipore). Signal intensity was measured using the Chemi Image documentation system (Fusion Fx7, VILBER LOUTMAT). Protein expression levels were quantified using the Image J program.

ASC = assay: LPS-induced ASC protein expression in RAW 264.7 cells (Western blot); assay type: cell-based, murine; details: KMU-470 0.1, 0.5, 1 μM 30 min, LPS 50 ng/mL 6 h
Description: as §4, §5

IL-6 = assay: LPS-induced IL-6 mRNA in RAW 264.7 cells (real time PCR); assay type: cell-based, murine; details: KMU-470 30 min, LPS 50 ng/mL 6 h
Description: as §4
Total RNA was isolated using TriZol reagent (Life Technologies; Gaithersburg, MD, USA) according to the manufacturer’s protocol. Total RNA absorbance was quantified by using Nanodrop 1000 (Thermo Fisher Scientific, Waltham, MA, USA). […] Real time quantitative PCR was performed by using the SYBR green premix (Roche Diagnostics, Mannheim, Germany) on the LightCycler 480 PCR (system Roche Diagnostics, Mannheim, Germany). […]

T1 sequence (Q9P1W9 whole entry, species assumed): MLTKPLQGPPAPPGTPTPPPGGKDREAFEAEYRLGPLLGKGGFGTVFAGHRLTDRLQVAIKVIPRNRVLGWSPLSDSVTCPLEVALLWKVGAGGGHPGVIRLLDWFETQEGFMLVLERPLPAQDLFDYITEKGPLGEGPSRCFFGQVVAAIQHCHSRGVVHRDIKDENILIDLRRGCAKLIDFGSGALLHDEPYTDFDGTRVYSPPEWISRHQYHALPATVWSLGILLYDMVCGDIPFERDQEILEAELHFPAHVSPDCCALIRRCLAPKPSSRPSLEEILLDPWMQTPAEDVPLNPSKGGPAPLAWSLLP

SMILES: CN(C)CCNc1cncc(-c2ccc3c(c2)/C(=C/c2cnc[nH]2)C(=O)N3)n1 [KMU-470, (Z)-3-((1H-Imidazol-5-yl)methylene)-5-(6-((2-(dimethylamino)ethyl)amino)pyrazin-2-yl)indolin-2-one]
- IC50 (PIM-2): 220 nM
- IC50 (PIM-3): 6.9 nM
- LPS-induced up-regulation of IL-1β mRNA expression (IL-1β mRNA; 1 µM compound, pre-treatment 1 h, RT-PCR (Figure 2B)): significantly inhibited
- LPS-induced up-regulation of IL-1β (mRNA) (IL-1β mRNA; KMU-470 30 min, real time PCR (Figure 6A)): significantly decreased
- p38 phosphorylation level (p38): no change
- LPS-induced phosphorylation of IKKα/β (IKKα/β): significantly reduced
- Expression of NLRP3 protein compared with LPS alone group (NLRP3): marked decrease
- Expression of ASC protein compared with LPS alone group (ASC): marked decrease
- LPS-induced up-regulation of IL-6 (mRNA) (IL-6): significantly decreased
